Source: ChEMBL document CHEMBL1201862, “PubChem BioAssay data set” (2004)
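A five-concentration, 48-hour dose response in 96-well plates underlies each endpoint, interpolated linearly between surrounding concentrations. Abbreviation: GI50, concentration required for 50% inhibition of growth.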 Active and inactive are the calls of the source. Cut-off read from the data, not from the text of the source: active = GI50 up to about 1.1 µM and inactive = higher.

Experiments:
Assay in all cases: growth of human tumour cells (NCI), 48 h
[1] = system: SR
[2] = system: DU-145
[3] = system: U-251
[4] = system: OVCAR-4
[5] = system: SF-539
[6] = system: RXF 393
[7] = system: UACC-257
[8] = system: SK-MEL-2
[9] = system: SK-MEL-28
[10] = system: SW-620
[11] = system: IGROV-1
[12] = system: HCT-116
[13] = system: UO-31
[14] = system: SNB-19
[15] = system: SNB-75
[16] = system: HOP-62
[17] = system: T47D
[18] = system: A498
[19] = system: HOP-92
[20] = system: OVCAR-8

Compound | GI50 [1] | GI50 [2] | GI50 [3] | GI50 [4] | GI50 [5] | GI50 [6] | GI50 [7] | GI50 [8] | GI50 [9] | GI50 [10] | GI50 [11] | GI50 [12] | GI50 [13] | GI50 [14] | GI50 [15] | GI50 [16] | GI50 [17] | GI50 [18] | GI50 [19] | GI50 [20]
CC1=C(C(N)=O)C(c2ccncc2)C(C#N)C(=O)N1 (stereo not drawn) | > 100 µM (inactive) | > 100 µM (inactive) | > 100 µM (inactive) | > 100 µM (inactive) | > 100 µM (inactive) | > 100 µM (inactive) | > 100 µM (inactive) | > 100 µM (inactive) | > 100 µM (inactive) | > 100 µM (inactive) | > 100 µM (inactive) | > 100 µM (inactive) | > 100 µM (inactive) | > 100 µM (inactive) | > 100 µM (inactive) | > 100 µM (inactive) | > 100 µM (inactive) | > 100 µM (inactive) | > 100 µM (inactive) | 
O=C(c1ccc([N+](=O)[O-])cc1)C(Br)C(Br)c1ccnc2ccccc12 (stereo not drawn) | 2.24 µM (inactive) | 11.8 µM (inactive) | 1.75 µM (inactive) | 11.7 µM (inactive) | 6.4 µM (inactive) | 8.93 µM (inactive) | 2.18 µM (inactive) | 12.6 µM (inactive) | 11.1 µM (inactive) | 2.09 µM (inactive) | 13.7 µM (inactive) | 1.92 µM (inactive) | 1.77 µM (inactive) | 5.98 µM (inactive) | 4.06 µM (inactive) | 13.9 µM (inactive) | 5.96 µM (inactive) | 3.99 µM (inactive) | 13.8 µM (inactive) | 9.08 µM (inactive)
CN(C)CC1CCC/C(=C\c2ccc(OC(=O)/C=C/c3ccccc3)cc2)C1=O (stereo not drawn) | 0.796 µM (active) | 2.47 µM (inactive) | 1.72 µM (inactive) | 2.35 µM (inactive) | 1.77 µM (inactive) | 1.93 µM (inactive) | 3.48 µM (inactive) | 3.52 µM (inactive) | 2.65 µM (inactive) | 1.95 µM (inactive) | 3.85 µM (inactive) | 1.34 µM (inactive) | 1.83 µM (inactive) | 5.35 µM (inactive) | 6.04 µM (inactive) | 3.48 µM (inactive) | 1.06 µM (active) | 7.28 µM (inactive) | 2.22 µM (inactive) | 2 µM (inactive)
N#CC(NNC(=O)Cc1ccccc1)c1ccccc1O (stereo not drawn) | 7.29 µM (inactive) | 20.8 µM (inactive) | 6.15 µM (inactive) | 11.8 µM (inactive) | 16.4 µM (inactive) | 24.7 µM (inactive) | 14 µM (inactive) | 30.3 µM (inactive) | 26.2 µM (inactive) | 10.2 µM (inactive) | 21.2 µM (inactive) | 7.26 µM (inactive) | 4.54 µM (inactive) | 21.3 µM (inactive) | 21.3 µM (inactive) | 15.8 µM (inactive) | 2.62 µM (inactive) | > 48.9 µM (inactive) | 23.3 µM (inactive) | 12.3 µM (inactive)
COC(=O)C1CCC(=O)N1CN(C(C)=O)c1cc(OC)ccc1OC (stereo not drawn) | 16.9 µM (inactive) | > 100 µM (inactive) | > 100 µM (inactive) | > 100 µM (inactive) | > 100 µM (inactive) | > 100 µM (inactive) | > 100 µM (inactive) | > 100 µM (inactive) | > 100 µM (inactive) | > 100 µM (inactive) | > 100 µM (inactive) | > 100 µM (inactive) | > 100 µM (inactive) | > 100 µM (inactive) | > 100 µM (inactive) | > 100 µM (inactive) | > 100 µM (inactive) | > 100 µM (inactive) | > 100 µM (inactive) | > 100 µM (inactive)
S=C1NC2=C(COC/C2=C\c2ccccc2Cl)C(c2ccccc2Cl)N1 (stereo not drawn) | 2.84 µM (inactive) | 70.8 µM (inactive) | 25.1 µM (inactive) | 31.3 µM (inactive) | 34.9 µM (inactive) | 33.3 µM (inactive) | 56 µM (inactive) | 21.2 µM (inactive) |  | 25.5 µM (inactive) | 39.1 µM (inactive) | 17.5 µM (inactive) | 19.5 µM (inactive) | 50.5 µM (inactive) | 49.5 µM (inactive) | 61.4 µM (inactive) | 41.5 µM (inactive) | 80 µM (inactive) | 36.4 µM (inactive) | 29.8 µM (inactive)
COc1cc(-c2cc(=O)c3c(OC)c(OC)c(OC)c(OC)c3o2)cc(OC)c1OC [HEPATAMETHOXYFLAVONE] | > 100 µM (inactive) | 45.5 µM (inactive) | 40.1 µM (inactive) | 32.4 µM (inactive) | > 100 µM (inactive) | 28.1 µM (inactive) | 40 µM (inactive) | 27.9 µM (inactive) | 53.2 µM (inactive) | 55 µM (inactive) | 52.2 µM (inactive) | 44.8 µM (inactive) | 7.38 µM (inactive) | 76.6 µM (inactive) | 26.4 µM (inactive) | 41.9 µM (inactive) | 12.7 µM (inactive) | 21.2 µM (inactive) | 9.98 µM (inactive) | 24.5 µM (inactive)
